Laboratory results: US8314079B2, “Hyaluronic acid oligosaccharide fractions and drugs containing the same” (Seikagaku Corporation, priority 2000, dated 2012)

Legend:
Balb/c mice = experiment: Concanavalin A hepatopathy model; format: in vivo, mouse; conditions: for average of GPT / average of GOT: 24 hours after ConA 15 mg/kg; for average of GPT: negative control about 5600; for average of GOT: negative control about 6000; for visual inspection of the livers (degree of hepatopathy): compared with negative and positive control solution groups
Description: The preparation, concentration, dose, volume to be administered etc. of the test solution are the same as those used in Experiment 1.
As a positive control solution, Stronger Neo-Minophagen C (Minophagen Pharmaceutical) was used at a dose of 5 mg/kg. This dose is the maximum clinical dose of the drug. Moreover, physiological saline was used as a negative control solution.
Balb/c mice of 8-week old were divided into a “negative control solution” administered group (n=12), “HA4 2 mg/kg” administered group (n=12), “HA4 10 mg/kg” administered group (n=12), “HA4 50 mg/kg” administered group (n=12), “positive control solution” administered group (n=12) and “normal” group (n=8).
Concanavalin A (ConA, Sigma) was injected via the caudal vein at a dose of 15 mg/kg. Then, each of the aforementioned solutions was administered via the caudal vein. Thereafter, the mice were bred for 24 hours.
The whole blood was collected from the abdominal aorta, and the GPT activity and GOT activity were measured by a clinical chemistry autoanalyzer (COBAS MIRA S, Nippon Roche). Further, the liver was extracted, and appearance of the liver was evaluated by visual inspection.

PC-12 cells = experiment: Cell death (apoptosis) of PC-12 cells in culture broth without blood serum, trypan blue staining; format: cell-based; conditions: 100 ng/mL, no blood serum, 24 hours
Description: Therefore, each of ΔHA2, HA4, ΔHA4, HA6, ΔHA6, HA8, HA10, HA12, HA84, L4 and L4L4 was added to a culture broth containing PC-12 cells at a concentration of 100 ng/mL (containing no blood serum), 24 hours after, the cells were stained with trypan blue, and a ratio of the number of viable cells (cells not stained with trypan blue) to the total cell number was calculated.

SD male rats = experiment: Gastric ulcer caused by arrest by water immersion in rats; format: in vivo, rat
Description: A test substance was dissolved in carboxymethylcellulose (CMC) to obtain a test solution for administration. The concentration was determined depending on the dose mentioned below so that the volume of the solution to be administered should become 10 mL/kg.
Moreover, as a positive control solution, a conventional agent for treating gastritis and gastric ulcer (teprenone, geranylgeranylacetone, trade name: Selbex, Eisai) dissolved in CMC was used. The concentration was determined so that the dose and the volume of the solution to be administered should become 1 mg/kg (clinical dose) and 10 mL/kg, respectively. As a negative control solution, 0.5% CMC was used.
SD male rats of 5-week old were divided into a “negative control solution” administered group (n=8), “HA4 4 mg/kg” administered group (n=8), “HA4 20 mg/kg” administered group (n=8), “HA4 100 mg/kg” administered group (n=8) and “positive control solution” administered group (n=8).
The rats of the groups were starved from 16:00 of the day before the first administration day, orally administered with each of the aforementioned solutions at 8:00 of the next day and arrested by water immersion. The arrest by water immersion was continued until 8:00 of the next day (24 hours). In the course of the arrest, each solution was administered in the same manner as the first administration at 16:00 and 24:00.
Then, the rats were dissected, and the stomachs were extracted. The extracted stomachs were expanded by injection of 10% buffered formalin to smoothen the holds and fixed. Then, the blood adhering to walls of stomachs was removed by washing with water.
The area ratio of ulcerous portion degenerated in a dark brown color (ulcer area/glandular stomach area) was measured by using an image analysis apparatus (Image-Pro PLUS™ Version 3.0.1, produced by Media Cybernetics). The symbols * and ** in FIG. 48 indicate significant differences with p<0.05 and p<0.01, respectively (Williams multiple range test).

HSF1 = experiment: Phosphorylation (activation) of HSF1 in heat-shocked K562 cells, band shift 66 kDa to 81 kDa by SDS-PAGE/Western blotting; format: cell-based, human
Excerpt: It is known that HSF1 (heat shock factor 1) protein is a transcription factor of Hsp70 (J. Biol. Chem., 271, pp. 3355-3358, 1996). Moreover, the HSF1 protein can be activated by phosphorylation, and this phosphorylation can be detected based on band shift in SDS-polyacrylamide gel electrophoresis (SDS-PAGE) (apparent molecular weight shifts from about 66 kDa to about 81 kDa). By utilizing this fact, the HA oligosaccharides of various sizes were allowed to act on the K562 cells given with stress, and the aforementioned band shift was detected to investigate the degree of the phosphorylation (activation) of HSF1.
HA4, ΔHA4, HA6, HA8, HA2-18 and HA 8-14 were each added to a medium containing the aforementioned cells at a concentration of 1, 10 or 100 ng/mL. Then, the cells were immediately transferred into an environment at 42° C. to be given with heat shock and incubated for 20 minutes. After the incubation, the cells were collected by centrifugation, and SDS-PAGE (gel concentration: 10%) was performed. Thereafter, Western blotting was performed by using anti-HSF1 monoclonal antibodies (produced by Stressgene) as primary antibodies and goat anti-mouse IgG monoclonal antibodies (produced by Jackson Lab) as secondary antibodies to detect the shift of a band of 66 kDa (HSF1 not phosphorylated) to a band of 81 kDa (phosphorylated HSF1).
In order to confirm the reproducibility of Experiment 1, the band shift was detected in the same manner as in Experiment 1 by using HA4, ΔHA4, HA8 and HA84 except that HA was added in a single kind of amount of 100 ng/mL, and the heat shock was given at 43° C. In FIG. 41, the first lane from the left indicates the result obtained with an extract of cells incubated at 37° C. (no addition of HA oligosaccharide), the second lane indicates the result obtained with an extract of cells subjected to 43° C. (no addition of HA oligosaccharide), and the first lane from the right indicates the result of detection of HSF1 (derived from bacteria) as a standard.
In order to investigate whether the action observed in Experiment 2 was specific to the saccharide chain basic structure of HA oligosaccharides, the following comparative experiment was performed by using chondroitin oligosaccharides. […] Therefore, it can be said that Ch is a substance extremely structurally analogous to HA, and the same shall also apply to the oligosaccharides thereof. • Saturated Ch tetrasaccharide (Ch4) • GlcAβ1-3GalNAcβ1-4GlcAβ1-3GalNAc • Saturated Ch hexasaccharide (Ch6) • GlcAβ1-3GalNAcβ1-4GlcAβ1-3GalNAcβ1-4GlcAβ1-3GalNAc • Saturated Ch octasaccharide (Ch8) • GlcAβ1-3GalNAcβ1-4GlcAβ1-3GalNAcβ1-4GlcAβ1-3GalNAcβ1-4GlcAβ1-3GalNAc
The same experiment as Experiment 2 was performed by using these oligosaccharides.

[1] = Experiment 2 (and comparative Experiment 3), 100 ng/mL, heat shock 43° C.

CC(=O)N[C@H]1[C@H](O[C@H]2[C@H](O)[C@@H](O)[C@H](O[C@H]3[C@H](O)[C@@H](CO)OC(O)[C@@H]3NC(C)=O)O[C@@H]2C(=O)O)O[C@H](CO)[C@@H](O)[C@@H]1O[C@@H]1O[C@H](C(=O)O)[C@@H](O)[C@H](O)[C@H]1O.[Na].[Na] (stereo partly drawn) [HA4, sodium β-D-glucopyranosyluronate-(1→3)-2-acetamido-2-deoxy-β-D-glucopyranosyl-(1→4)-(sodium β-D-glucopyranosyluronate)-(1→3)-2-acetamido-2-deoxy-D-glucopyranose]
average of GPT (Balb/c mice; 10 mg/kg via the caudal vein): about 2200 I.U./L
average of GOT (Balb/c mice; 10 mg/kg via the caudal vein): about 2000 I.U./L
visual inspection of the livers (degree of hepatopathy) (Balb/c mice; 10 mg/kg): lower degree of hepathopathy
average of GPT (Balb/c mice; 50 mg/kg via the caudal vein): about 1200 I.U./L
average of GOT (Balb/c mice; 50 mg/kg via the caudal vein): about 1000 I.U./L
visual inspection of the livers (degree of hepatopathy) (Balb/c mice; 50 mg/kg): lower degree of hepathopathy
suppression of cell death (ratio of the number of viable cells to the total cell number) (PC-12 cells): more notably suppressed the cell death
area ratio of ulcerous portion (ulcer area/glandular stomach area) (SD male rats; 20 mg/kg oral, compared with positive control solution (teprenone 1 mg/kg)): lower than that observed for the positive control solution group
area ratio of ulcerous portion (ulcer area/glandular stomach area) (SD male rats; 100 mg/kg oral, compared with positive control solution (teprenone 1 mg/kg)): lower than that observed for the positive control solution group
area ratio of ulcerous portion (ulcer area/glandular stomach area) (SD male rats; all HA4 groups (4, 20, 100 mg/kg, oral, three administrations), compared with negative control solution group): significantly reduced
shift of a band of 66 kDa (HSF1 not phosphorylated) to a band of 81 kDa (phosphorylated HSF1) (HSF1; Experiment 1, 1, 10 or 100 ng/mL, heat shock 42° C., 20 minutes): shift to the 81 kDa band was observed depending on the amount of the added HA oligosaccharide
amount of HSF1 per se (HSF1; [1]): amounts of both HSF1 of 66 kDa and 81 kDa per se were also increased
band shift of HSF1 (66 kDa to 81 kDa) (HSF1; [1]): band shift was observed
